According to ChEMBL document CHEMBL5465560, “Selectivity Literature for EUbOPEN Chemogenomic Library” (2024):

Columns and labels:
[1] = target: Serine/threonine-protein kinase pim-2 (Homo sapiens, UniProt Q9P1W9); experiment: Selectivity interaction (KinomeScan (DiscoverX)) EUB0000229b PIM2; details: at 10 µM
[2] = target: Serine/threonine-protein kinase MARK1 (Homo sapiens) (UniProt Q9P0L2); experiment: Selectivity interaction (KinomeScan (DiscoverX)) EUB0000092b MARK1; details: at 10 µM
[3] = target: Mitogen-activated protein kinase 3 (Homo sapiens, UniProt P27361); experiment: Selectivity interaction (KinomeScan (DiscoverX)) EUB0000655a MAPK3; details: at 10 µM
[4] = target: cAMP-dependent protein kinase catalytic subunit alpha (Homo sapiens, UniProt P17612); experiment: Selectivity interaction (KinomeScan (DiscoverX)) EUB0000655a PRKACA; details: at 10 µM
[5] = target: [Pyruvate dehydrogenase (acetyl-transferring)] kinase isozyme 1, mitochondrial (Homo sapiens, UniProt Q15118); experiment: Selectivity interaction (ActivX KiNativ screen (kinase selectivity in THP-1 cell lysates)) EUB0000639a PDK1; assay type: subcellular; details: lysate
[6] = tested on: Mast/stem cell growth factor receptor Kit (Homo sapiens), P10721 [D816H]; experiment: (§1) Selectivity interaction (KinomeScan (DiscoverX)) EUB0001049a KIT; details: at 1 µM
[7] = tested on: Mast/stem cell growth factor receptor Kit (Homo sapiens), P10721 [L576P]; experiment: as §1; details: at 1 µM
[8] = tested on: Mast/stem cell growth factor receptor Kit (Homo sapiens), P10721 [V559D,T670I]; experiment: as §1; details: at 1 µM
[9] = tested on: Mast/stem cell growth factor receptor Kit (Homo sapiens), P10721 [V559D,V654A]; experiment: as §1; details: at 1 µM
[10] = target: Mast/stem cell growth factor receptor Kit (Homo sapiens, UniProt P10721); experiment: as §1; details: at 1 µM
[11] = tested on: Mast/stem cell growth factor receptor Kit (Homo sapiens), P10721 [D816V]; experiment: as §1; details: at 1 µM
[12] = tested on: Mast/stem cell growth factor receptor Kit (Homo sapiens), P10721 [V559D]; experiment: as §1; details: at 1 µM
[13] = tested on: Mast/stem cell growth factor receptor Kit (Homo sapiens), P10721 [A829P]; experiment: as §1; details: at 1 µM
[14] = target: Histone-lysine N-methyltransferase PRDM9 (Homo sapiens) (UniProt Q9NQV7); experiment: Selectivity interaction (Methyltransferase screen (radiometric assays, panel of 8 PRMTs, 21 protein lysine methyltransferases, 3 DNA methyltransferases, and one RNA methyltransferase)) EUB0000271b PRDM9
[15] = target: T1, Serine/threonine-protein kinase RIO1 (Homo sapiens) (UniProt Q9BRS2); experiment: Selectivity interaction (KinomeScan (DiscoverX)) EUB0000695a RIOK1; details: at 100 nM
T1 sequence (whole entry): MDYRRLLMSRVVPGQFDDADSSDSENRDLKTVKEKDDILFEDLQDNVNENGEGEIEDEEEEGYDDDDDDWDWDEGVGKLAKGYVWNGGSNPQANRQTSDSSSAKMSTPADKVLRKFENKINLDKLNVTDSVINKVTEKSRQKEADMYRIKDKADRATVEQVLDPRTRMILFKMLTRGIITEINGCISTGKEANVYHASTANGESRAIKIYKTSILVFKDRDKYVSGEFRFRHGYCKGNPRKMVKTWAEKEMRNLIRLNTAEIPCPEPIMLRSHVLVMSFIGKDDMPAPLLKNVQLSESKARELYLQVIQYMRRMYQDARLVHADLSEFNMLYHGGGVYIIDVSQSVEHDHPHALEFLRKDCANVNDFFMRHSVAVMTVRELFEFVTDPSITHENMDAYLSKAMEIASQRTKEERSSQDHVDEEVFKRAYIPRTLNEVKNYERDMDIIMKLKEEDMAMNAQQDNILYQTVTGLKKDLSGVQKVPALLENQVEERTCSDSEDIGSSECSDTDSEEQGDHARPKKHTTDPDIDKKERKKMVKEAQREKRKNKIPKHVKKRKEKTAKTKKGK

[16] = target: NT-3 growth factor receptor (Homo sapiens, UniProt Q16288); experiment: Selectivity interaction (KinomeScan (DiscoverX)) EUB0000595a NTRK3; details: at 10 µM
[17] = target: Serine/threonine-protein kinase PAK 6 (Homo sapiens) (UniProt Q9NQU5); experiment: Selectivity interaction (KinomeScan (DiscoverX)) EUB0000045b PAK6; details: at 10 µM
[18] = target: Phosphatidylinositol 4-phosphate 5-kinase type-1 alpha (Homo sapiens) (UniProt Q99755); experiment: Selectivity interaction (KinomeScan (DiscoverX)) EUB0000045b PIP5K1A
[19] = target: T2, Calcium/calmodulin-dependent protein kinase type IV (Homo sapiens) (UniProt Q16566); experiment: Selectivity interaction (KinomeScan (DiscoverX)) EUB0000045b CAMK4
T2 sequence (whole entry): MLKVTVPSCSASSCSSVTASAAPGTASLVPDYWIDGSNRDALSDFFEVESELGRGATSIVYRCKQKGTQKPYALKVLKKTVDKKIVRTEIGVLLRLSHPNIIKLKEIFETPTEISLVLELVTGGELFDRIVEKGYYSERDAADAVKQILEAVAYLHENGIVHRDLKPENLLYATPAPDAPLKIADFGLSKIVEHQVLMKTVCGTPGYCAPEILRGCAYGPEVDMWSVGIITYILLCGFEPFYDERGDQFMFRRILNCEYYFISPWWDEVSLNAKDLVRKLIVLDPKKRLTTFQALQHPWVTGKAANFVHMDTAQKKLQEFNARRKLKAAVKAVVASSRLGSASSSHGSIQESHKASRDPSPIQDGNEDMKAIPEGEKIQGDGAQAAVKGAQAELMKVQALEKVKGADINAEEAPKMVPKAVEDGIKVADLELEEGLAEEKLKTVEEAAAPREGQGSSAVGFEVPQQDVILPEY

[20] = target: Non-receptor tyrosine-protein kinase TYK2 (Homo sapiens, UniProt P29597); experiment: Selectivity interaction (Kinase panel (Carna Biosciences)) EUB0001542aTs TYK2; details: at 1 µM
[21] = target: T3, Testis-specific serine/threonine-protein kinase 1 (Homo sapiens) (UniProt Q9BXA7); experiment: Selectivity interaction (Ambit KINOMEscan and KiNATiv profiling in Jurkat cells) EUB0000090b TSSK1B; assay type: cell-based; details: at 1 µM
T3 sequence (whole entry): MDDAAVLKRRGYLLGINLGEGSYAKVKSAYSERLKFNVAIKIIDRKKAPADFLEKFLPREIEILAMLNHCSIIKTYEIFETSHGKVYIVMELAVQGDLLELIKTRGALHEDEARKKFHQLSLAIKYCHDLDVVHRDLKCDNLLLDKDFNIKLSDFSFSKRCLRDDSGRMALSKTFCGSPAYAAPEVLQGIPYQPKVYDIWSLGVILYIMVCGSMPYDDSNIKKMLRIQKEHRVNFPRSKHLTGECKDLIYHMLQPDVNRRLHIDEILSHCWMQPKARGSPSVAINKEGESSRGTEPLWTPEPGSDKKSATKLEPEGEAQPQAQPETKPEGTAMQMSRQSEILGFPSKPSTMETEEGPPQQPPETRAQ

Histone-lysine N-methyltransferase PRDM9 (Homo sapiens), sequence (Q9NQV7 whole entry): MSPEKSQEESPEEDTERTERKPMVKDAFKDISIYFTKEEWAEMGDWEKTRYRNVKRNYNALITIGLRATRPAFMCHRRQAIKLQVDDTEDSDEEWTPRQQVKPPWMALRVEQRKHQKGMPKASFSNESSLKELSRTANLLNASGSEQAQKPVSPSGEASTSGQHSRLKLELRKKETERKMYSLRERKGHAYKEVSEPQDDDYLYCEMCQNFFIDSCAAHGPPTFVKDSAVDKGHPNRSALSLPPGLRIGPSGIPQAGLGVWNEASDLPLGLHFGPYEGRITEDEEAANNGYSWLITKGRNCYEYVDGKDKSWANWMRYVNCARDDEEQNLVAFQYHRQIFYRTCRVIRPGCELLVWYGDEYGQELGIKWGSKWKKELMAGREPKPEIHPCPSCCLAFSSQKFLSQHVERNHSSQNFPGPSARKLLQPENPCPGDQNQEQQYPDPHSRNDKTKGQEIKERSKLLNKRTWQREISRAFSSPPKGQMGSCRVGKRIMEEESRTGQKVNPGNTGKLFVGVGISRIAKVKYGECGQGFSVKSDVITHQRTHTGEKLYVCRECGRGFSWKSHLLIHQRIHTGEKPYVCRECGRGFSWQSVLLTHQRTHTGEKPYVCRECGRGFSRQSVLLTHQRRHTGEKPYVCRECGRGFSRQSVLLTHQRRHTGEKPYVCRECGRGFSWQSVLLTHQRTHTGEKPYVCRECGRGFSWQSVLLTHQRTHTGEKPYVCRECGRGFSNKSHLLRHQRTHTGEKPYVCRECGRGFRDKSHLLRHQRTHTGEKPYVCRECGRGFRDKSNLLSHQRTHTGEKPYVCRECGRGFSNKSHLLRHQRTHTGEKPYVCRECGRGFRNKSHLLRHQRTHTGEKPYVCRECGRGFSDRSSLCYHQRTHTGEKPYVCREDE
Phosphatidylinositol 4-phosphate 5-kinase type-1 alpha (Homo sapiens), sequence (Q99755 whole entry): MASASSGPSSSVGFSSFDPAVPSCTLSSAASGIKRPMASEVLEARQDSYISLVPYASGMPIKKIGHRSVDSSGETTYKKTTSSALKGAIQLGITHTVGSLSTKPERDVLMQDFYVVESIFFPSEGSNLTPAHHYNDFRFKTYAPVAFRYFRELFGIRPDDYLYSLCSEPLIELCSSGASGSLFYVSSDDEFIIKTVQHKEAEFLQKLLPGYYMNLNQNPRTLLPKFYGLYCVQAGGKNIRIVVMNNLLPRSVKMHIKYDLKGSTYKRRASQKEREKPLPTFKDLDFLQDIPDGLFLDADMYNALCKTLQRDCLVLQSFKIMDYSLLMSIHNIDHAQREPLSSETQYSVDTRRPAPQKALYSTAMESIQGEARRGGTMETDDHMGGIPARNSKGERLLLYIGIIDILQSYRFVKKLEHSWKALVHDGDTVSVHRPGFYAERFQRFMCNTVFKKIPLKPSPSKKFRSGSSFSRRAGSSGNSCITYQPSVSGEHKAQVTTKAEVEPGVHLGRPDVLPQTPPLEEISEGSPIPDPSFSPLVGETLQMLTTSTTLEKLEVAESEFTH
Serine/threonine-protein kinase MARK1 (Homo sapiens), sequence (Q9P0L2 whole entry, looked up): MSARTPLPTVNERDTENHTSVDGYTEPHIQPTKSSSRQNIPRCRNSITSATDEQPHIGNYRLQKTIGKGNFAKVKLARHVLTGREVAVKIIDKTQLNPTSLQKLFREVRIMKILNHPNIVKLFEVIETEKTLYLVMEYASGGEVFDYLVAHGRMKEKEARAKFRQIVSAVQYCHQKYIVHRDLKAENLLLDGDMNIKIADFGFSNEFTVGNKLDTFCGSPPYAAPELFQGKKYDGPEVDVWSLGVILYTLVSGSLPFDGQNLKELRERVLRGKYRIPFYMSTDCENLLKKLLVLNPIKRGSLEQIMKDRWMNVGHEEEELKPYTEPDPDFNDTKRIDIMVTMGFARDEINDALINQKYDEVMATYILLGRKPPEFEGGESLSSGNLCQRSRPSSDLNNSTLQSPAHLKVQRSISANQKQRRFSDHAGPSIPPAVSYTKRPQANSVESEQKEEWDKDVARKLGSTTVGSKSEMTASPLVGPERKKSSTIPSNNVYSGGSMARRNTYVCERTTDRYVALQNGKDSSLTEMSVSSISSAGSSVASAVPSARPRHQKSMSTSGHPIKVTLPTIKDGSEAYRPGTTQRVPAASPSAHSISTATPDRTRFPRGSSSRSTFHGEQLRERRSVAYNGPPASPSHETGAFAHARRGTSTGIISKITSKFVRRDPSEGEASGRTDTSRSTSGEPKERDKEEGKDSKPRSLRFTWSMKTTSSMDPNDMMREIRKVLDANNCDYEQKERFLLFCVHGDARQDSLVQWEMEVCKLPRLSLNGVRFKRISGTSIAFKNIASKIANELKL
Mast/stem cell growth factor receptor Kit (Homo sapiens), P10721 [L576P], sequence (P10721 whole entry L576P): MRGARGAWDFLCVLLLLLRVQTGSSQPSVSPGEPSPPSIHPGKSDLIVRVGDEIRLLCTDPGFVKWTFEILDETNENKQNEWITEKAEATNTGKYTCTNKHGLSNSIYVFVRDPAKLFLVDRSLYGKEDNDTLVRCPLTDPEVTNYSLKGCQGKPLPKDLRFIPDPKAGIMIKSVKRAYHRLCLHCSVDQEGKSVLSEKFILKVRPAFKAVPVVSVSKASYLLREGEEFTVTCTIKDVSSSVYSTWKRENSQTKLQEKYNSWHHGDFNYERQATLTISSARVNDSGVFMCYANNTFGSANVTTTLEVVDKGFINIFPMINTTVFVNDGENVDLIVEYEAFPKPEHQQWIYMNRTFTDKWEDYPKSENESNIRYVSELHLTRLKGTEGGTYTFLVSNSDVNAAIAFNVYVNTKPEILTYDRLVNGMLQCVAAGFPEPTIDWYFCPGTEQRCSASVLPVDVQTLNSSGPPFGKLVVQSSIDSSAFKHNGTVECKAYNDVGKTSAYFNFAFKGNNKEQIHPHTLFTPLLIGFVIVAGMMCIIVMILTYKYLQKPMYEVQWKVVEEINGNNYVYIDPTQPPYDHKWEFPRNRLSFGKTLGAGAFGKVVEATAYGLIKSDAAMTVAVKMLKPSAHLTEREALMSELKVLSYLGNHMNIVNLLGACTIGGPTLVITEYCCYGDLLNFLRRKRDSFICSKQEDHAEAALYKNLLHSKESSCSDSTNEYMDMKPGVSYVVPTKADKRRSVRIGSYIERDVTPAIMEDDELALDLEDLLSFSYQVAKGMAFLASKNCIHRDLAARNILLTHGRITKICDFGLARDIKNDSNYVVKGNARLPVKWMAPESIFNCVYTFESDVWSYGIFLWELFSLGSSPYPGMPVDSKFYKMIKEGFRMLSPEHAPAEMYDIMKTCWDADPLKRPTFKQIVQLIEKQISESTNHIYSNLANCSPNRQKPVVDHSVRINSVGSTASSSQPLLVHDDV
Mitogen-activated protein kinase 3, sequence (P27361 whole entry): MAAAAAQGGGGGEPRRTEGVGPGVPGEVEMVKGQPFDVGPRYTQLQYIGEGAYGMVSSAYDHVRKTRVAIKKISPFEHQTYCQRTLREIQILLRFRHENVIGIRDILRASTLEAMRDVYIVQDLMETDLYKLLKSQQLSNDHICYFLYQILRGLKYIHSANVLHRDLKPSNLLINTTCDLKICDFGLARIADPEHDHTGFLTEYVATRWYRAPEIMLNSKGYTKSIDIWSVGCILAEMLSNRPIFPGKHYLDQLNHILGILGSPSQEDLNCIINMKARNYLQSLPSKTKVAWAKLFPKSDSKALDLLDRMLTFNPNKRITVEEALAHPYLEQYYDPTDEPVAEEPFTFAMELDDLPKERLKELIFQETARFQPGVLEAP
Mast/stem cell growth factor receptor Kit (Homo sapiens), P10721 [D816H], sequence (P10721 whole entry D816H): as the sequence (P10721 whole entry L576P) above, with P576L, D816H counted along it
Serine/threonine-protein kinase pim-2, sequence (Q9P1W9 whole entry, looked up): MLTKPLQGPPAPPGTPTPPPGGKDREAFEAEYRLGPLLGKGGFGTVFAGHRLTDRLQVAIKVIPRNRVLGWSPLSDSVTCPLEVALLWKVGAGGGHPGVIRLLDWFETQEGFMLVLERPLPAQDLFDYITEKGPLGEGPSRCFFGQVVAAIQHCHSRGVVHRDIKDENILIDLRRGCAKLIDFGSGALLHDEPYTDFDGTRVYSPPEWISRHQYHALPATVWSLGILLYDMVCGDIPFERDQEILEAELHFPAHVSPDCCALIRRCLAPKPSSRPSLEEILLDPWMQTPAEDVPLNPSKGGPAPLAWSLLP

COc1cc(N(C)c2ccnc3ccc(C(F)(F)F)cc23)cc(OC)c1OC
% binding [1]: 100%

CCC(=O)N1CCN(c2ccc(-n3c(=O)ccc4cnc5ccc(-c6cnc7ccccc7c6)cc5c43)cc2C(F)(F)F)CC1
% of control [2]: 100%

CN(C)CCOc1ccc(-c2nc(-c3ccncc3)c(-c3ccc4c(c3)CC/C4=N\O)[nH]2)cc1
% of control [3]: 100% | % of control [4]: 67%

CC[C@@H]1[C@H](F)C(=O)N[C@@H]1COc1nccc2cc(C(N)=O)c(OC)cc12 [ZIMLOVISERTIB]
% of inhibition ([5]; at 0.01 µM): 1.3% | % of inhibition ([5]; at 0.04 µM): 12.1% | % of inhibition ([5]; at 0.2 µM): 12.1% | % of inhibition ([5]; at 1 µM): 12.5% | % of inhibition ([5]; at 5 µM): 28.1%

COc1cc(Nc2nc(C)cc(-c3cnn4nc(OC)ccc34)n2)cc(C(F)(F)F)c1
% of control [6]: 66% | % of control [7]: 100% | % of control [8]: 85% | % of control [9]: 62% | % of control [10]: 89% | % of control [11]: 96% | % of control [12]: 80% | % of control [13]: 84%

Cc1cc(C)cc([C@@H]2c3cc(C)ccc3NC(=O)CN2C(=O)c2ccc(Br)s2)c1
% of activity ([14]; at 1 µM): 102% | % of activity ([14]; at 10 µM): 97%

Cc1cc(F)c(C(=O)Nc2cccc(-c3nncn3C(C)C)n2)cc1-n1cnc(C2CC2)c1
% of control [15]: 100%

COCC(=O)NC/C=C/c1ccc2ncnc(Nc3ccc(Oc4ccc(C)nc4)c(C)c3)c2c1 [CP-724714]
% of control [16]: 93%

C=CC(=O)Nc1cc(-n2c(=O)ccc3cnc4ccc(-c5ccc(NS(C)(=O)=O)cc5)cc4c32)ccc1C
% of control [17]: 100% | % of control ([18]; at 1 µM): 100% | % of control ([18]; at 10 µM): 54% | % of control ([19]; at 1 µM): 100% | % of control ([19]; at 10 µM): 72%

Cn1cc(Nc2nccc(N3CC4CCC(C3)N4C(=O)[C@@H]3CC3(F)F)n2)cn1
% of inhibition [20]: 101%

CN(C)C/C=C/C(=O)Nc1ccc(C(=O)N2CCCC(Nc3ncc(Cl)c(-c4c[nH]c5ccccc45)n3)C2)cc1 (stereo not drawn)
% of control [21]: 83%
